Source: publication PMC5590800 (Biomolecules & Therapeutics, 2017)
“And” between values parts separate entries of the source, which are not always exact repeats. Identical values can stand only once. Like-named read-outs stand apart in the source and are kept apart here.

Experiments:
[1] = In vitro daunomycin cytotoxicity assay; assay type: cell-based; conditions: human
[2] = assay type: in vivo, Sprague-Dawley rats
[3] = oral administration; ref Sezgin-Bayindir et al., 2013; Cai et al., 2014; cited from earlier work
[4] = male, Sprague-Dawley, rat, plasma, iv, 2 mg/kg
[5] = male, Sprague-Dawley, rat, plasma, po, 25 mg/kg

SMILES | IC50 at 2 h [1] | Clt of PTX ([2]; PTX IV 2 mg/kg, rats, 2 mg/kg) | Relative BA of PTX ([2]; PTX PO 25 mg/kg alone (oral control), rats) | Absolute BA of PTX ([2]; PTX PO 25 mg/kg alone vs IV 2 mg/kg, rats) | Clt/F of PTX ([2]; PTX PO 25 mg/kg alone, rats) | AUC(0-inf) [2, 4] | AUC(0-t) [2, 4] | C0 [2, 4] | Vd [2, 4] | half-life [2, 4] | k el [2, 4] | AUC(0-inf) [2, 5] | AUC(0-t) [2, 5] | Cmax [2, 5] | Tmax [2, 5] | Vd/F [2, 5] | half-life [2, 5] | k el [2, 5] | Oral bioavailability of PTX [3]
COc1cccc2c1C(=O)c1c(O)c3c(c(O)c1C2=O)C[C@@](O)(C(C)=O)C[C@@H]3O[C@H]1C[C@H](N)[C@H](O)[C@H](C)O1 [DNM, Daunomycin] | 10.4 ± 0.53 µM | – | – | – | – | – | – | – | – | – | – | – | – | – | – | – | – | – | –
CC(=O)O[C@H]1C(=O)[C@@]2(C)[C@H]([C@H](OC(=O)c3ccccc3)[C@]3(O)C[C@H](OC(=O)[C@H](O)[C@@H](NC(=O)c4ccccc4)c4ccccc4)C(C)=C1C3(C)C)[C@]1(OC(C)=O)CO[C@@H]1C[C@@H]2O [PTX, Paclitaxel] | – | 0.328 L/h and 0.328 ± 0.097 L/h | 100.0% | 2.0% | 12.7 ± 2.8 L/h | 1790 ± 522 ng·h/mL | 1660 ± 499 ng·h/mL | 3330 ± 1160 ng/mL | 2.06 ± 0.36 L | 4.55 ± 1.02 h | 4.47e-05 s⁻¹ | 564 ± 116 ng·h/mL | 409 ± 47.2 ng·h/mL | 60.6 ± 10.3 ng/mL | 4.2 ± 1.1 h | 73.6 ± 14.9 L | 4.26 ± 1.62 h | 5.06e-05 s⁻¹ | < 5%
